Entries after “also recorded” stand apart in the source; their conditions may differ.
Biological target: T1, Enolase purified from rabbit muscle (Oryctolagus cuniculus, UniProt P25704)
T1 construct: Enolase purified from rabbit muscle was purchased from Sigma-Aldrich; purchased Sigma-Aldrich; host or cells: rabbit muscle
Assay: Enolase activity assay
Type: biochemical
Description: FIG. 4. […] (a) Affinity chromatography study for ENOblock in HCT116 cancer cells. […] (b) Sequence identification for the enolase monomer subunit. […] Mascot scores above 100 were deemed to be significant. […] Twenty micrograms of cell lysate from YD-10B oral cancer cells or Huh7 hepatocytes were used as positive controls. […] As a positive control, ENOblock affinity matrix was incubated with 200 μg of HCT 116 cell lysate; 50 μg cell lysate from HCT116 cancer cells was used as a positive control for the enolase antibody.
Enolase purified from rabbit muscle was purchased from Sigma-Aldrich. A single unit of enolase is defined as the amount of enzyme that produces 1 μmol of phosphoenol pyruvate from phospho-D-glycerate/min in standard assay.^52 Enolase activity assay was measured at 37° C. by incubating pure enolase (3-9 U) in a buffer containing 50 mM imidazole-HCl (pH 6.8)(JUNSEI), 2.0 mM MgSO4 (JUNSEI) and 400 mM KCl (JUNSEI) in the absence or presence of ENOblock or NaF (Sigma). The reaction was initiated by adding 1 μmol of 2-phospho-D-glycerate, and the OD was measured after 10 min of reaction time with a spectrophometer at 240 nm.

T1 sequence (P25704 whole entry): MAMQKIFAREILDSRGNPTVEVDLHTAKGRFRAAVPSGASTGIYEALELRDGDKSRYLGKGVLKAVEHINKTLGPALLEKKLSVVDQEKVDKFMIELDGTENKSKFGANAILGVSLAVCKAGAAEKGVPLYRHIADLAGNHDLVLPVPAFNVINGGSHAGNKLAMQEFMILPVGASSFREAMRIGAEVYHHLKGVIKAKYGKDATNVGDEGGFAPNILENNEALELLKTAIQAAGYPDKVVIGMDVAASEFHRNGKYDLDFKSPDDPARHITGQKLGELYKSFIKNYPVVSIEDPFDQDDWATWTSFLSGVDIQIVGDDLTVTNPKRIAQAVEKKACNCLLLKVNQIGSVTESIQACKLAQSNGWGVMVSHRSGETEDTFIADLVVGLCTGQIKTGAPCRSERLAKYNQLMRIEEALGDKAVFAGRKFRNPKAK

For `NCCOCCOCCNC(=O)Cc1ccc(Nc2nc(NCc3ccc(F)cc3)nc(NCC3CCCCC3)n2)cc1` [ENOblock], the “inhibition of purified enolase activity” value (OD 240 nm, 37° C., 10 min) was “dose-dependently inhibited the activity of purified enolase; also recorded: enolase activity can be inhibited by ENOblock dose-dependently”, the “enolase inhibitory concentration compared with sodium fluoride (NaF)” value (purified enolase) was “markedly lower concentration than the wellknown enolase inhibitor” and the “treatment concentration reducing enolase activity to the level approximated with 1 mM NaF” value (purified enolase) was 2.5 µM.

Source: US9364480B2, “Pharmaceutical composition for preventing or treating cancer, containing enoblock as active ingredient” (GWANGJU INSTITUTE OF SCIENCE AND TECHNOLOGY, priority 2012, dated 2016)
